Laboratory results from patent US6172185A, “Antimicrobial cationic peptide derivatives of bactenecin” (priority 1998, dated 2001).
Where a SMILES comes first, the peptide text is derived from it. Where no end group is shown, it is not given here.

Columns and labels:
E. coli DC2 = assay type: cell-based, Escherichia coli; conditions: E. coli DC2, 0.1M KCl
Method: The minimal inhibitory concentration (MIC) of peptides was determined by a modified two-fold microtitre broth dilution method modified from that of Steinberg et al (Steinberg, Antimicrob. Agents Chemother. 41:1738, 1997). Using the classical method (Amsterdam, Antibiotics in Laboratory Medicine (Lorian, V., ed) pp. 72-78, 1991), higher concentrations of peptides tend to precipitate in the LB broth, thus the concentrations of peptides in the sequential wells are not accurate. Also the peptides stick to the most readily available (tissue-culture treated polystyrene) 96-well microtitre plates. Therefore the 2× series of dilutions was performed in Eppendoff tubes (polypropylene) before mixing with LB broth. Serial of two fold dilutions of peptides ranging from 640 μg/ml to 1.25 μg/ml were made in 0.2% BSA, 0.01% acetic acid buffer in the Eppendoff tubes. Ten μl of each concentration was added to each corresponding well of a 96-well microtiter plate (polypropylene cluster; Costar Corporation, Cambridge, Mass.). Bacteria were grown overnight and diluted 10-5 into fresh LB broth or Todd Hewitt broth for Streptococcus. LB medium contained 10 g/1l tryptone and 5 g/yeast extract, with no salt. Todd Hewitt contained 500 g/l beef heart infusion, 20 g/l bacto neopeptone, 2 g/l bacto dextrose, 2 g/l sodium chloride, 0.4 g/l disodium phosphate, 2.5 g/l sodium carbonate. One hundred […] containing about 10^4-10^5 CFU/ml of tested bacteria was added to each well. […]
It has been proposed that the antibacterial target of cationic peptides be at the cytoplasmic membrane. […] Once inside the cells, diS-C3-(5) becomes concentrated and self-quenches its own fluorescence. If peptides form channels or otherwise disrupt the membrane, the membrane potential will be dissipated, and the DiS-C3-(5) will be released into the medium causing the fluorescence to increase, as can be detected by fluorescent spectrometry. […] Therefore the MICs of bactenecin, reduced bactenecin and bac2S in the presence of 0.1M KCl were determined and shown to be 8-16 μg/ml (i.e. 4 to 8 fold higher than in low salt). […]

[1] = system: rat embryonic neurons, fetal rat astrocytes and human glioblastoma cells; conditions: cited from earlier work
E. coli UB1005 = assay: Outer membrane permeabilization, NPN uptake assay; assay type: cell-based, Escherichia coli; conditions: FIG. 3
Method: Mid-log phase E. coli cells were collected and incubated with NPN in the presence of various concentrations of bactenecin (oxidized), bac2S, bactenecin (reduced). NPN was taken up into cells when the outer membrane was disrupted by the peptides. The uptake of NPN was measured by the increase of fluorescence. Polymyxin B: -.quadrature.-; Bactenecin: -+-; Bac2S: -o-; Bactenecin (Reduced): -.gradient.-
The ability of peptides to permeabilize the outer membrane was determined by the NPN assay of Loh et al. (Loh et al., Antimicrob. Agents Chemother. 19:777, 1984). Cytoplasmic membrane permeabilization was determined by using the membrane potential sensitive cyanine dye DiS-C3-(5) (Sims et al., Biochemistry 13:3315, 1974). […] The cell suspension was incubated with […] DiS-C3-(5) until DiS-C3-(5) uptake was maximal (as indicated by a stable reduction in fluorescence due to fluorescence quenching as the dye became concentrated in the cell by the membrane potential), and 100 mM KCl was added to equilibrate the cytoplasmic and external K+ concentration. […] The fluorescence reading was monitored by using a Perkin-Elmer model 650-10 S fluorescence spectrophotometer (Perkin-Elmer Corp. Norwalk, Conn.), with an excitation wavelength of 622 nm and an emission wavelength of 670 nm. […]

Compound | MIC in the presence of 0.1M KCl (E. coli DC2) | Minimal Agglutinating Concentration, Oxidized Form (Human Red Blood Cells) | concentration causing agglutination of human red blood cells (Human Red Blood Cells) | cytotoxicity [1] | concentration permeabilizing the outer membrane to 50% of maximal increase in fluorescence (NPN) (E. coli UB1005)
CC[C@H](C)[C@H](NC(=O)[C@H](CCCNC(=N)N)NC(=O)[C@H](CS)NC(=O)[C@H](CC(C)C)NC(=O)[C@@H](N)CCCNC(=N)N)C(=O)N[C@H](C(=O)N[C@H](C(=O)N[C@H](C(=O)N[C@@H](CCCNC(=N)N)C(=O)N[C@H](C(=O)N[C@@H](CS)C(=O)N[C@@H](CCCNC(=N)N)C(=O)O)C(C)C)[C@@H](C)CC)C(C)C)C(C)C [Bac (Reduced), RLCRIVVIRVCR] (H-RLCRIVVIRVCR-OH) | 8 to 16 µg/mL | 16 µg/mL | 16000 to 32000 ng/mL | – | –
RLSRIVVIRVSR [Bac 2S, RLSRIVVIRVSR] | 8 to 16 µg/mL | > 64 µg/mL | – | – | –
CC[C@H](C)[C@@H]1NC(=O)[C@H](CCCNC(=N)N)NC(=O)[C@@H](NC(=O)[C@H](CC(C)C)NC(=O)[C@@H](N)CCCNC(=N)N)CSSC[C@@H](C(=O)N[C@@H](CCCNC(=N)N)C(=O)O)NC(=O)[C@H](C(C)C)NC(=O)[C@H](CCCNC(=N)N)NC(=O)[C@H]([C@@H](C)CC)NC(=O)[C@H](C(C)C)NC(=O)[C@H](C(C)C)NC1=O [Bactenecin, RLCRIVVIRVCR] (HELM PEPTIDE1{R.L.C.R.I.V.V.I.R.V.C.R}$PEPTIDE1,PEPTIDE1,3:R3-11:R3$$$V2.0) | 8 to 16 µg/mL | 64 µg/mL | – | strongly cytotoxic | –
Polymyxin B | – | – | – | – | 0.4 mg/mL
